The source of these data is US12673975B2, “Cyclic peptide, cell scaffold material, cell separating material, and medium” (FUJIFILM Corporation, priority 2019, dated 2026).

pKd: −log10 of the molar value. Starred links: 1 amine or outer side, 2 acyl side, 3 side chain; linkers in the order of their positions; H or OH if unused. Positions of bridges follow the written chain, without caps; N, C: chain ends. Non-standard residues stand in square brackets, D forms with d. Residues, ends and D or L forms follow the SMILES beside them. Pen = CC(C)(S)[C@H](N)C(=O)O; hCys = N[C@@H](CCS)C(=O)O; Orn = NCCC[C@H](N)C(=O)O; Dab = NCC[C@H](N)C(=O)O; Dap = NC[C@H](N)C(=O)O; X1 = O=C(C[*:2])[*:1]; X2 = O=C(C[*:1])[*:2]

One data set addresses human integrin αvβ5 (Homo sapiens, UniProt P06756+P18084). Put plainly: Evaluation of integrin binding property (surface plasmon resonance, Biacore 3000, immobilized cyclic peptide). To be noted: surface plasmon resonance, immobilized cyclic peptide, human integrin αvβ5; read-out: Binding activity (integrin binding property, dissociation constant rank). Summed up: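 Human αvβ5 (30-1,000 nM) flowed for 10 min at 25 °C over immobilized cyclic peptide in 20 mM HEPES, 150 mM NaCl, 5 mM MgCl2, pH 7.4, followed by 30 min running buffer and 0.5 M EDTA regeneration. Dissociation constant from peptide minus unimmobilized channel, scored into standard grades.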
Background: In SPR one partner is held on a chip, and binding of the other changes the refractive index at the surface.

A short description of data set [1]: Evaluation of molecule stability (alkali treatment, residual rate by LC/MS). Format: physicochemical. The conditions noted are these: alkali treatment, residual rate by LC/MS. The gist of the method: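 Stability read as percent of summed LC/MS peak area remaining versus untreated peptide (C18, 45 °C, 10 mM ammonium formate pH 3, ESI positive/negative). Treatment: 500 μM peptide in water plus an equivalent of 1 M NaOH, 15 °C for 3 hours.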

Sequence of human integrin αvβ5 (P06756 31-1048): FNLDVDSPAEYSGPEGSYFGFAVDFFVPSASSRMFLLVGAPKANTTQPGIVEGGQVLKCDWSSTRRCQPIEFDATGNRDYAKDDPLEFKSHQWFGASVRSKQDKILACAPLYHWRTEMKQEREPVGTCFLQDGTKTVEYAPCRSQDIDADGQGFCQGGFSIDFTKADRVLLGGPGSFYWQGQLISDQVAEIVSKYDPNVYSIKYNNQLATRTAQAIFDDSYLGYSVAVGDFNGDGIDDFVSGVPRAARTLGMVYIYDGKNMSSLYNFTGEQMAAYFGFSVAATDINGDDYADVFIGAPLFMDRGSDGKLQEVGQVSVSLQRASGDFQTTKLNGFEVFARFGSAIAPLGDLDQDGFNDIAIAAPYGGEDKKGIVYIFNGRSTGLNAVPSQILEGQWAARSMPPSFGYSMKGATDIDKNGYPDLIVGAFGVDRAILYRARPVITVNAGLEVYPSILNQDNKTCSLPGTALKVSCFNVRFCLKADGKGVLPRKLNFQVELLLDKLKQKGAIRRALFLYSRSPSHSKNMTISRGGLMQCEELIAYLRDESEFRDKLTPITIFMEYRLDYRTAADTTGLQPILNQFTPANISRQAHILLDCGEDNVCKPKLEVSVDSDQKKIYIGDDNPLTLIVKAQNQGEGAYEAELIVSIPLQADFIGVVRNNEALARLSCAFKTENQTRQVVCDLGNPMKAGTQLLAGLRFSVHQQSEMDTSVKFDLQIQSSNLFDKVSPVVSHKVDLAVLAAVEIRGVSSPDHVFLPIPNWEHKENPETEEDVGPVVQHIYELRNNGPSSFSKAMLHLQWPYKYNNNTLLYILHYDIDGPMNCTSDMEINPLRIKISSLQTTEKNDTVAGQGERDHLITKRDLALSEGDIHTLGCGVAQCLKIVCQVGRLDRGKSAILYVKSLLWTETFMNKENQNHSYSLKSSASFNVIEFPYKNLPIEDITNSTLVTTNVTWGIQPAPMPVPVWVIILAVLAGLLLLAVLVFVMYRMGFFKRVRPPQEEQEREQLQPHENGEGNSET
Sequence of human integrin αvβ5 (P18084 24-799): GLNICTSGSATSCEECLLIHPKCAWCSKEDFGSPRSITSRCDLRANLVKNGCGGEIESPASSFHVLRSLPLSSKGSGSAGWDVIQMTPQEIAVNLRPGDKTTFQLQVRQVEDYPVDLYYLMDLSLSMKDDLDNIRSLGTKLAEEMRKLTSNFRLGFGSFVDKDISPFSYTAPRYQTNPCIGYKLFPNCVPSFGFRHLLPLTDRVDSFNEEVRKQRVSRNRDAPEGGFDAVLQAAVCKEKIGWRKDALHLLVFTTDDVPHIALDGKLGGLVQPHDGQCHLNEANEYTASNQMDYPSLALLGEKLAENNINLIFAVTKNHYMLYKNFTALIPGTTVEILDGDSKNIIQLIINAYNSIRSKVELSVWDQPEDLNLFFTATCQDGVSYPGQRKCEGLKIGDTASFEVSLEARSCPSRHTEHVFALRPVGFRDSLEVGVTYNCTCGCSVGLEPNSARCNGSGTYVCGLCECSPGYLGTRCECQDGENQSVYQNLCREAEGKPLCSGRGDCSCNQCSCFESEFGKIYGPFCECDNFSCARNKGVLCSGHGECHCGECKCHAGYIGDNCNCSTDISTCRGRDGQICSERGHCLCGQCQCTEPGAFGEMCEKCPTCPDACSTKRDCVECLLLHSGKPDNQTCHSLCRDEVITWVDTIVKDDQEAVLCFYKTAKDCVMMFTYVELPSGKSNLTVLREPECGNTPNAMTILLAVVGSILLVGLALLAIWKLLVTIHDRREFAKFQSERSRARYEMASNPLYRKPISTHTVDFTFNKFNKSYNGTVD

Consider `CC[C@H](C)[C@@H]1NC(=O)[C@@H](NC(=O)CNC(=O)[C@H](CCCCN)NC(=O)[C@H](CCCCN)NC(=O)[C@@H](N)CCCCN)CCNC(=O)CSCC[C@@H](C(=O)N[C@@H](C)C(=O)O)NC(=O)[C@H](CCCNC(=N)N)NC(=O)[C@H](Cc2ccccc2)NC(=O)[C@H]([C@@H](C)O)NC(=O)[C@H](CC(=O)O)NC(=O)CNC(=O)[C@H](CCCNC(=N)N)NC(=O)[C@@H]2CCCN2C1=O` [Cyclic peptide 118, KKKG(Dab(acetyl))IPRGDTFR-(Hcy)-A] (H-KKKG[Dab]IPRGDTFR[hCys]A-OH; linker 5-14 via X1), for which the pKd at human integrin αvβ5 was more than 7.30. Besides, the “Stability (molecule stability, residual rate of the cyclic peptide rank)” value in data set [1] is “A (The residual rate of the cyclic peptide is 70% or more.)”.

With `CC[C@H](C)[C@@H]1NC(=O)[C@@H](NC(=O)CNC(=O)[C@H](CCCCN)NC(=O)[C@H](CCCCN)NC(=O)[C@@H](N)CCCCN)CCCNC(=O)CSCC[C@@H](C(=O)N[C@@H](C)C(=O)O)NC(=O)[C@H](CCCNC(=N)N)NC(=O)[C@H](Cc2ccccc2)NC(=O)[C@H]([C@@H](C)O)NC(=O)[C@H](CC(=O)O)NC(=O)CNC(=O)[C@H](CCCNC(=N)N)NC(=O)[C@@H]2CCCN2C1=O` [Cyclic peptide 119, KKKG(Orn(acetyl))IPRGDTFR-(Hcy)-A] (H-KKKG[Orn]IPRGDTFR[hCys]A-OH; linker 5-14 via X1), at human integrin αvβ5, the pKd was more than 7.30. Besides, in data set [1], the “Stability (molecule stability, residual rate of the cyclic peptide rank)” value is on record as “A (The residual rate of the cyclic peptide is 70% or more.)”.

For `CC[C@H](C)[C@@H]1NC(=O)[C@@H](NC(=O)CNC(=O)[C@H](CCCCN)NC(=O)[C@H](CCCCN)NC(=O)[C@@H](N)CCCCN)CCCCNC(=O)CSCC[C@@H](C(=O)N[C@@H](C)C(=O)O)NC(=O)[C@H](CCCNC(=N)N)NC(=O)[C@H](Cc2ccccc2)NC(=O)[C@H]([C@@H](C)O)NC(=O)[C@H](CC(=O)O)NC(=O)CNC(=O)[C@H](CCCNC(=N)N)NC(=O)[C@@H]2CCCN2C1=O` [Cyclic peptide 120, KKKG(Lys(acetyl))IPRGDTFR-(Hcy)-A] (H-KKKGKIPRGDTFR[hCys]A-OH; linker 5-14 via X1), the pKd on human integrin αvβ5 was 7.00 to 7.30. Also, in data set [1], the “Stability (molecule stability, residual rate of the cyclic peptide rank)” value is recorded as “A (The residual rate of the cyclic peptide is 70% or more.)”.

For `CC(C)[C@@H]1NC(=O)[C@@H](NC(=O)[C@H](C)NC(=O)[C@H](CCCCN)NC(=O)[C@H](CCCCN)NC(=O)[C@@H](N)CCCCN)CCSCC(=O)NCCCC[C@@H](C(=O)N[C@@H](C)C(=O)O)NC(=O)[C@H](C)NC(=O)[C@H](Cc2ccccc2)NC(=O)[C@H]([C@@H](C)O)NC(=O)[C@H](CC(=O)O)NC(=O)CNC(=O)[C@H](CCCNC(=N)N)NC(=O)[C@@H]2CCCN2C1=O` [Cyclic peptide 121, KKKA-(Hcy)-VPRGDTFA(Lys(acetyl))A] (H-KKKA[hCys]VPRGDTFAKA-OH; linker 5-14 via X2), the pKd on human integrin αvβ5 is more than 7.30. In addition, the “Stability (molecule stability, residual rate of the cyclic peptide rank)” value in data set [1] is “A (The residual rate of the cyclic peptide is 70% or more.)”.

With `CC(C)[C@@H]1NC(=O)[C@@H](NC(=O)[C@H](C)NC(=O)[C@H](CCCCN)NC(=O)[C@H](CCCCN)NC(=O)[C@@H](N)CCCCN)CCNC(=O)CSCC[C@@H](C(=O)N[C@@H](C)C(=O)O)NC(=O)[C@H](C)NC(=O)[C@H](Cc2ccccc2)NC(=O)[C@H]([C@@H](C)O)NC(=O)[C@H](CC(=O)O)NC(=O)CNC(=O)[C@H](CCCNC(=N)N)NC(=O)[C@@H]2CCCN2C1=O` [Cyclic peptide 122, KKKA(Dab(acetyl))VPRGDTFA-(Hcy)-A] (H-KKKA[Dab]VPRGDTFA[hCys]A-OH; linker 5-14 via X1), the pKd at human integrin αvβ5 was more than 7.30. Further, the “Stability (molecule stability, residual rate of the cyclic peptide rank)” value in data set [1] is “A (The residual rate of the cyclic peptide is 70% or more.)”.

In the case of `CC[C@H](C)[C@@H]1NC(=O)[C@@H](NC(=O)[C@H](C)NC(=O)[C@H](CCCCN)NC(=O)[C@H](CCCCN)NC(=O)[C@@H](N)CCCCN)CCSCC(=O)NCCCC[C@@H](C(=O)N[C@@H](C)C(=O)O)NC(=O)[C@H](C)NC(=O)[C@H](Cc2ccccc2)NC(=O)[C@H](CO)NC(=O)[C@H](CC(=O)O)NC(=O)CNC(=O)[C@H](CCCNC(=N)N)NC(=O)[C@@H]2CCCN2C1=O` [Cyclic peptide 123, KKKA-(Hcy)-IPRGDSFA(Lys(acetyl))A] (H-KKKA[hCys]IPRGDSFAKA-OH; linker 5-14 via X2), the pKd at human integrin αvβ5 was more than 7.30. For the same compound, the “Stability (molecule stability, residual rate of the cyclic peptide rank)” value in data set [1] is “A (The residual rate of the cyclic peptide is 70% or more.)”.

Turning to `CC[C@H](C)[C@@H]1NC(=O)[C@@H](NC(=O)[C@H](C)NC(=O)[C@H](CCCCN)NC(=O)[C@H](CCCCN)NC(=O)[C@@H](N)CCCCN)CCNC(=O)CSCC[C@@H](C(=O)N[C@@H](C)C(=O)O)NC(=O)[C@H](C)NC(=O)[C@H](Cc2ccccc2)NC(=O)[C@H](CO)NC(=O)[C@H](CC(=O)O)NC(=O)CNC(=O)[C@H](CCCNC(=N)N)NC(=O)[C@@H]2CCCN2C1=O` [Cyclic peptide 124, KKKA(Dab(acetyl))IPRGDSFA-(Hcy)-A] (H-KKKA[Dab]IPRGDSFA[hCys]A-OH; linker 5-14 via X1), the pKd on human integrin αvβ5 is 7.00 to 7.30. For the same compound, the “Stability (molecule stability, residual rate of the cyclic peptide rank)” value in data set [1] was “A (The residual rate of the cyclic peptide is 70% or more.)”.

Turning to `CC(C)[C@@H]1NC(=O)[C@@H](NC(=O)[C@H](C)N)CCSCC(=O)NCC[C@@H](C(=O)N[C@@H](C)C(=O)O)NC(=O)[C@H](C)NC(=O)[C@H](Cc2ccccc2)NC(=O)[C@H]([C@@H](C)O)NC(=O)[C@H](CC(=O)O)NC(=O)CNC(=O)[C@H](CCCNC(=N)N)NC(=O)[C@@H]2CCCN2C1=O` [Cyclic peptide 125, A-(Hcy)-VPRGDTFA(Dab(acetyl))A] (H-A[hCys]VPRGDTFA[Dab]A-OH; linker 2-11 via X2), on human integrin αvβ5, the pKd is more than 7.30. Besides, the “Stability (molecule stability, residual rate of the cyclic peptide rank)” value in data set [1] was “A (The residual rate of the cyclic peptide is 70% or more.)”.

Turning to `CC[C@H](C)[C@@H]1NC(=O)[C@@H](NC(=O)[C@H](C)N)CCSCC(=O)NCC[C@@H](C(=O)N[C@@H](C)C(=O)O)NC(=O)[C@H](C)NC(=O)[C@H](Cc2ccccc2)NC(=O)[C@H](CO)NC(=O)[C@H](CC(=O)O)NC(=O)CNC(=O)[C@H](CCCNC(=N)N)NC(=O)[C@@H]2CCCN2C1=O` [Cyclic peptide 126, A-(Hcy)-IPRGDSFA(Dab(acetyl))A] (H-A[hCys]IPRGDSFA[Dab]A-OH; linker 2-11 via X2), the pKd at human integrin αvβ5 is more than 7.30. Further, in data set [1], the “Stability (molecule stability, residual rate of the cyclic peptide rank)” value is “A (The residual rate of the cyclic peptide is 70% or more.)”.

Consider `CC[C@H](C)[C@@H]1NC(=O)[C@@H](NC(=O)[C@H](C)N)CCSCC(=O)NCC[C@@H](C(=O)NCC(=O)O)NC(=O)[C@H](C)NC(=O)[C@H](Cc2ccccc2)NC(=O)[C@H](CO)NC(=O)[C@H](CC(=O)O)NC(=O)CNC(=O)[C@H](CCCNC(=N)N)NC(=O)[C@@H]2CCCN2C1=O` [Cyclic peptide 127, A-(Hcy)-IPRGDSFA(Dab(acetyl))G] (H-A[hCys]IPRGDSFA[Dab]G-OH; linker 2-11 via X2), for which the pKd on human integrin αvβ5 is more than 7.30. The “Stability (molecule stability, residual rate of the cyclic peptide rank)” value in data set [1] was “A (The residual rate of the cyclic peptide is 70% or more.)”.

With `CC[C@H](C)[C@@H]1NC(=O)[C@@H](NC(=O)CNC(=O)[C@H](CCCCN)NC(=O)[C@H](CCCCN)NC(=O)[C@@H](N)CCCCN)C(C)(C)SCC(=O)NC[C@@H](C(=O)N[C@@H](C)C(=O)O)NC(=O)[C@H](CCCNC(=N)N)NC(=O)[C@H](Cc2ccccc2)NC(=O)[C@H]([C@@H](C)O)NC(=O)[C@H](CC(=O)O)NC(=O)CNC(=O)[C@H](CCCNC(=N)N)NC(=O)[C@@H]2CCCN2C1=O` [Cyclic peptide 128, KKKG-(Pen)-IPRGDTFR(Dap(acetyl))A] (H-KKKG[Pen]IPRGDTFR[Dap]A-OH; linker 5-14 via X2), the pKd on human integrin αvβ5 is more than 7.30. Moreover, in data set [1], the “Stability (molecule stability, residual rate of the cyclic peptide rank)” value was “B (The residual rate of the cyclic peptide is 50% or more and less than 70%.)”.

On to `CC[C@H](C)[C@@H]1NC(=O)[C@@H](NC(=O)CNC(=O)[C@H](CCCCN)NC(=O)[C@H](CCCCN)NC(=O)[C@@H](N)CCCCN)C(C)(C)SCC(=O)NCC[C@@H](C(=O)N[C@@H](C)C(=O)O)NC(=O)[C@H](CCCNC(=N)N)NC(=O)[C@H](Cc2ccccc2)NC(=O)[C@H]([C@@H](C)O)NC(=O)[C@H](CC(=O)O)NC(=O)CNC(=O)[C@H](CCCNC(=N)N)NC(=O)[C@@H]2CCCN2C1=O` [Cyclic peptide 129, KKKG-(Pen)-IPRGDTFR(Dab(acetyl))A] (H-KKKG[Pen]IPRGDTFR[Dab]A-OH; linker 5-14 via X2), for which, on human integrin αvβ5, the pKd is 7.00 to 7.30. For the same compound, the “Stability (molecule stability, residual rate of the cyclic peptide rank)” value in data set [1] was “A (The residual rate of the cyclic peptide is 70% or more.)”.

On to `CC[C@H](C)[C@@H]1NC(=O)[C@@H](NC(=O)CNC(=O)[C@H](CCCCN)NC(=O)[C@H](CCCCN)NC(=O)[C@@H](N)CCCCN)C(C)(C)SCC(=O)NCCC[C@@H](C(=O)N[C@@H](C)C(=O)O)NC(=O)[C@H](CCCNC(=N)N)NC(=O)[C@H](Cc2ccccc2)NC(=O)[C@H]([C@@H](C)O)NC(=O)[C@H](CC(=O)O)NC(=O)CNC(=O)[C@H](CCCNC(=N)N)NC(=O)[C@@H]2CCCN2C1=O` [Cyclic peptide 130, KKKG-(Pen)-IPRGDTFR(Orn(acetyl))A] (H-KKKG[Pen]IPRGDTFR[Orn]A-OH; linker 5-14 via X2), for which, at human integrin αvβ5, the pKd was more than 7.30. Moreover, the “Stability (molecule stability, residual rate of the cyclic peptide rank)” value in data set [1] is on record as “A (The residual rate of the cyclic peptide is 70% or more.)”.
